# Results reported in ChEMBL document CHEMBL1146997, “Synthesis of phospholipase A2 inhibitory biflavonoids” (Bioorg Med Chem Lett, 2006).
# Molecular target: T1, Phospholipase A2, membrane associated (Homo sapiens, UniProt P14555)
# T1 sequence (P14555 whole entry): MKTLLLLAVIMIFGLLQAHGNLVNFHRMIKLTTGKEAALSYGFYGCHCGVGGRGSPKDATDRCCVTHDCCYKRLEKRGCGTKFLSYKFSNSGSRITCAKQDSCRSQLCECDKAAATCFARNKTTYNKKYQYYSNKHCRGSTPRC
# Experiment: Inhibition of sPLA2-2A in HEK293 cell
# Format: cell-based
row,SMILES,IC50 [µM]
1,O=c1cc(-c2ccc(Oc3cc(-c4cc(=O)c5c(O)cc(O)cc5o4)ccc3O)cc2)oc2cc(O)cc(O)c12 [OCHNAFLAVONE],3.5
2,O=c1cc(-c2ccc(O)c(-c3c(O)cc(O)c4c(=O)cc(-c5ccc(O)cc5)oc34)c2)oc2cc(O)cc(O)c12 [AMENTOFLAVONE],23.8
3,O=c1cc(-c2ccccc2)oc2ccc(-c3ccc4oc(-c5ccccc5)cc(=O)c4c3)cc12,69.3
4,O=c1cc(-c2ccc(-c3c(-c4ccccc4)oc4ccccc4c3=O)cc2)oc2ccccc12,23.2

# Second part, the compound after the results:
row,IC50 [µM],SMILES
1,3,O=c1cc(-c2ccc(-c3ccc(-c4cc(=O)c5ccccc5o4)cc3)cc2)oc2ccccc12
2,19.9,O=c1cc(-c2cccc(-c3ccc4oc(-c5ccccc5)cc(=O)c4c3)c2)oc2ccccc12
3,15.5,O=c1cc(-c2ccc(-c3cccc(-c4cc(=O)c5ccccc5o4)c3)cc2)oc2ccccc12
4,63.9,O=c1cc(-c2ccc(-c3ccc4oc(-c5ccccc5)cc(=O)c4c3)cc2)oc2ccccc12
